In patent US12516092B2, “Peptide ligands of the GDNF family receptor A-like (GFRAL) receptor” (THE TRUSTEES OF THE UNIVERSITY OF PENNSYLVANIA, priority 2019, dated 2026):
Values belong to the molecule of their own block, whether it stands above or below them. Non-standard residues stand in square brackets, D forms with d. Residues, ends and D or L forms follow the SMILES beside them. No end group written: not given here. Lys(N3) = [N-]=[N+]=NCCCC[C@H](N)C(=O)O

Experiments:
[1] = in vitro PK study in rat microsomes; format: in vitro ADME
Description: FIG. 8 is a graph illustrating the results from in vitro PK study of GFRAL receptor antagonist in rat microsomes. […] Reaction velocity (V) was calculated to be 511 uL/1 mg. Intrinsic clearance (Cl-int) was determined to be 339 uL/min/mg protein.

male rats = assay: Ejaculation studies in rats; format: in vivo, rat; settings: video recorded for 3 h
Description: Rats were video recorded for 3 h and the number of spontaneous ejaculations were analyzed by an observer blinded to treatment groups. Without wishing to be bound by theory, GFANT01 may be an agonist of the GFRAL receptor.

[2] = biological target: T1, recombinant human GFRα-like His-tag receptor (Homo sapiens, UniProt Q6UXV0); assay: ELISA binding assay of GDF15 to GFRAL receptor; settings: GDF15 run at 100 ng/mL to 0.005 ng/mL; receptor 0.1 μg/mL on nickel coated plate
T1 construct: purchased R&D 9647-GR-050
T1 sequence (Q6UXV0 19-394): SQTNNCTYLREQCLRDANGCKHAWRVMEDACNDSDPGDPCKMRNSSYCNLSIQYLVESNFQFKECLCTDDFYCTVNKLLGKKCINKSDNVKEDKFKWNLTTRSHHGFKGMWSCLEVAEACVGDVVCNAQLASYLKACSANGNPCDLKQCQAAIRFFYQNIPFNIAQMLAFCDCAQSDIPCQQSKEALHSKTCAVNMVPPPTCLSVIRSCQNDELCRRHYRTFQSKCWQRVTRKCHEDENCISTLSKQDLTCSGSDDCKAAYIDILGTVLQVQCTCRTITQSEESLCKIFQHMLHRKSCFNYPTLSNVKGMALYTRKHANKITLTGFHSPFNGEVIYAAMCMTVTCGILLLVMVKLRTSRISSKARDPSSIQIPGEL
Description: To validate binding of the synthesized peptides to the GFRAL receptor, an ELISA assay was developed to determine the binding affinity of the peptides for their receptor. The primary antibody (Abcam ab206414) was diluted to 1 μg/mL. The secondary antibody was diluted by placing 5 μL into 10 mL assay buffer. GDF15 was run at concentrations of 100 ng/mL to 0.005 ng/mL. The recombinant human GFRα-like His-tag receptor (R&D 9647-GR-050) was added to the Pierce™ nickel coated plate (ThermoFisher Scientific 15442) at 0.1 μg/mL in a total volume of 100 μL.

human GFRAL receptor = biological target: T2, human GFRAL receptor (Homo sapiens, UniProt Q6UXV0); assay: Cy5-conjugate binding to human GFRAL receptor in vitro, tracked with anti-Cy5 antibody; settings: Cy5-conjugate exposed to human GFRAL receptor in vitro
T2 sequence (Q6UXV0 19-394): T1 sequence (Q6UXV0 19-394)
From the text: A Cy5-conjugate of GFRAL receptor antagonist was synthesized and exposed to the human GFRAL receptor in vitro and tracked for binding using an anti-Cy5 antibody.

GFRAL receptor = assay: co-localization with the GFRAL receptor in the brainstem (image)
From the text: This technology provides a new route to treat cachexia and chemotherapy induced nausea/vomiting by uniquely blocking the GDF15-GFRAL signaling in the brainstem.

rats [3] = assay: food intake study; format: in vivo, rat
Description: (§1) FIG. 5A is a graph of a food intake study performed to evaluate the efficacy of unconjugated GFANT05 peptide (TK*[…]; SEQ ID NO: 5, wherein K* is K azido) to reduce nausea.
(§2) Five potential ligands (GFANT01-GFANT05, SEQ. ID NOs: 1-5, wherein the K* in each peptide is Lysine(N3)) were synthesized. The effects of each of the novel ligands were tested for their ability to alter nausea in rats over the course of 24 hours. […] Animals were given either MIC-1 (30 pmol), the endogenous ligand of GFRAL that suppresses appetites, GFANT05 (300 pmol), or a combination of both and their food intake was monitored for up to 24 hrs (FIG. 5A). […] In addition, kaolin intake, a reliable measure of nausea in rats, was reduced in animals receiving GFANT05 compared to vehicle alone and that of a known nausea-inducing compound (MIC-1) (FIG. 5B). […] Analysis of emetic episodes were measured by an observer blinded to treatment groups.

rats [4] = assay: kaolin intake study; format: in vivo, rat; settings: compared to vehicle alone and MIC-1
Description: as §1, §2

rats [5] = assay: Nausea/malaise (illness-like behaviors) studies in rats; format: in vivo, rat; settings: over the course of 24 hours
Description: as §2

Reaction velocity (V) [1]: 511 uL/1 mg
half-life [1]: 1.74 h
microsomal CLint ([1]; read-out: Intrinsic clearance (Cl-int)): 339 µL/min/mg
Molecule: CC[C@H](C)[C@H](NC(=O)[C@H](CC(C)C)NC(=O)[C@H](CCC(=O)O)NC(=O)[C@H](CCC(=O)O)NC(=O)[C@H](CCCCN=[N+]=[N-])NC(=O)[C@@H](N)[C@@H](C)O)C(=O)N[C@@H](Cc1c[nH]cn1)C(=O)N[C@@H](C)C(=O)N[C@@H](Cc1c[nH]cn1)C(=O)N[C@@H](C)C(=O)N[C@@H](CC(=O)O)C(=O)N1CCC[C@H]1C(=O)N[C@@H](CCSC)C(=O)N[C@H](C(=O)N[C@@H](CC(C)C)C(=O)N[C@H](C(=O)N[C@@H](CCC(N)=O)C(=O)N[C@@H](CCCCN)C(=O)N[C@H](C(=O)N[C@@H](CC(=O)O)C(=O)N[C@H](C(=O)NCC(=O)N[C@H](C(=O)N[C@@H](CO)C(=O)N[C@@H](CC(C)C)C(=O)N[C@@H](CCC(N)=O)C(=O)N[C@H](C(=O)N[C@@H](Cc1ccc(O)cc1)C(=O)N[C@@H](CC(=O)O)C(=O)O)[C@@H](C)O)C(C)C)[C@@H](C)O)[C@@H](C)O)[C@@H](C)CC)C(C)C [GFRAL receptor antagonist] (H-T[Lys(N3)]EELIHAHADPMVLIQKTDTGVSLQTYD-OH; N-terminus and C-terminus assumed)

Molecule: growth and differentiation factor 15 [GDF15]
spontaneous ejaculation (male rats): the same effect
KD [2]: 1.03 ng/mL

Molecule: GFANT01: engineered peptide EDDVSFQK*LDDNVRYHTLRK; may be an agonist of the GFRAL receptor (EDDVSFQ[Lys(N3)]LDDNVRYHTLRK; not fully specified; printed as EDDVSFQK*LDDNVRYHTLRK)
spontaneous ejaculation (male rats): result in spontaneous ejaculation

Molecule: Cy5-conjugate of GFRAL receptor antagonist: Cy5-conjugate of GFRAL receptor antagonist, synthesized for tracking binding with an anti-Cy5 antibody (T[Lys(N3)]EELIHAHADPMVLIQKTDTGVSLQTYD; also: Cy5 conjugate, site not given here)
binding to the GFRAL receptor (human GFRAL receptor): confirming GFRAL receptor antagonist binding to the GFRAL receptor

Molecule: GFANT05: engineered peptide TK*EELIHAHADPMVLIQKTDTGVSLQTYD; GFRAL receptor antagonist (T[Lys(N3)]EELIHAHADPMVLIQKTDTGVSLQTYD)
co-localization with the GFRAL receptor (GFRAL receptor): co-localizing with the GFRAL receptor in the brainstem
overall food consumption (rats [3]; GFANT05 (300 pmol) added to MIC-1 (30 pmol), compared with MIC-1): did not increase overall food consumption over MIC-1
food intake (rats [3]; GFANT05 (300 pmol) alone, 24 hrs post-administration, vs untreated control): ate the same amount of food as untreated control animals
kaolin intake (rats [4]): reduced
effect on nausea/illness-like behaviors (rats [5]): significant effect
